Data reported in US12331040B2 (Karyopharm Therapeutics Inc., priority 2013, dated 2025).
pIC50: −log10 of the molar value.

Key:
U2OS cells [1] = assay: BrdU incorporation and cell cycle analysis by flow cytometry in U2OS cells; type: cell-based, human; conditions: 1 μM, BrdU/7-AAD flow cytometry
Experimental: U2OS cells were treated with DMSO or 1 μM Compound 585 for one, two or three days. At each time point, cells were treated with 10 μM BrdU for 2 hours, and then collected by trypsinization. Cells were subsequently washed, fixed and stained for BrdU and total DNA (7-AAD). BrdU incorporation and cell cycle analysis was performed using flow cytometry on a BD Fortessa Analyzer. Data was then analyzed using FCS Express 4 software.

U2OS cells [2] = assay: Western blots of autophagy, stress and cell cycle markers in U2OS cells; type: cell-based, human; conditions: 1 μM or 10 μM, 48 hours, Western blot
Experimental: U2OS cells were plated in a 6-well plate overnight. The next day, the cells were treated with 1 μM or 10 μM Compound 585 for 48 hours, then collected and lysed in RIPA buffer. The lysate was run on SDS-PAGE and Western blots of PAK4, PUMA, CHOP, p21, cyclin D, MLH1, p-AMPK, AMPK and LC3 were performed.

Z-138 xenografts = assay: Z-138 mantle cell lymphoma xenograft in SCID mice; type: in vivo; parameters: toxicity (side effects, weight loss): dose or concentration left out as unconfirmed
Experimental: The impact of Compound 585 on tumor growth was tested using a Z-138 mantle cell lymphoma cancer xenograft model in SCID mice. Z-138 (ATCC #CRL-3001) mantle cell lymphoma cells were obtained from ATCC. These cells were grown in IMEM medium supplemented with 10% horse serum, 1% penicillin and streptomycin, and 2 mM L-glutamine. Cells were sub-cultured by dilution at a ratio of 1:5 to 1:10. Z-138 cells were harvested by centrifugation and counted using a hemocytometer. Cells were resuspended in PBS at a 2×10^8 cells per mL. Cells were placed on ice and mixed with an equal volume of Matrigel (BD Biosciences CB-40234). This mixture was kept on ice and injected into the left flank of mice in a volume of 0.2 mL, equivalent to 2×10^7 cells per mouse. Forty (40) CB-17 SCID mice were inoculated subcutaneously in the left flank with 2×10^7 Z-138 cells. Treatment was initiated when the tumors reached a mean volume of 125.2 mm^3. Mice were allocated to five (5) groups of eight (8) mice such that mean tumor volume in each group was within the range of 106.5 to 138.8 mm^3. Mice were treated with vehicle, standard of care/positive control drug (cyclophosphamide), or Compound 585. […] Animal weights and conditions were recorded daily, and tumors were measured on Mondays, Wednesdays and Fridays.

HT-29 cells = assay: MTT cell proliferation assay; type: cell-based; conditions: Homo sapiens, 72-hour MTT
Experimental: The MTT cell proliferation assay was used to study the cytotoxic properties of the compounds. The assay was performed according to the method described by Roche Molecular Biochemicals, with minor modifications. The assay is based on the cleavage of the tetrazolium salt, MTT, in the presence of an electron-coupling reagent. The water-insoluble formazan salt produced must be solubilized in an additional step. Cells grown in a 96-well tissue culture plate were incubated with the MTT solution for approximately 4 hours. After this incubation period, a water-insoluble formazan dye formed. After solubilization, the formazan dye was quantitated using a scanning multi-well spectrophotometer (ELISA reader). […] The cells were seeded at 5,000-10,000 cells in each well of 96-well plate in 100 μL of fresh culture medium and were allowed to attach overnight. The stock solutions of the compounds were diluted in 100 μL cell culture medium to obtain eight concentrations of each test compound, ranging from 1 nM to 30 μM. […] All optical densities were measured at 490 nm using a Vmax Kinetic Microplate Reader (Molecular Devices). In most cases, the assay was performed in duplicate and the results were presented as a mean percent inhibition to the negative control±SE. The following formula was used to calculate the percent of inhibition: Inhibition (%)=(1−(ODo/OD))×100.
Compounds 504, 510, 525 and 585 were further tested against selected solid and hematological cancer cell lines and selected normal cell lines in a 72-hour MTT cell proliferation assay.

MDA-MB-468 xenografts = assay: MDA-MB-468 (triple negative breast cancer) xenograft in CB-17 SCID mice; type: in vivo, mouse; conditions: for mean tumor volume of MDA-MB-468 xenografts: CB-17 SCID mice, 15 mg/kg PO once daily Monday through Friday; for toxicity (side effects, weight loss): MDA-MB-468 xenograft model, minimal or no side effects or weight loss up to 200 mg/kg daily dose
Experimental: The oncological impact of Compound 504 and Compound 510 were tested using a MDA-MB-468 (triple negative breast cancer) xenograft model in CB-17 SCID mice. MDA-MB-468 (ATCC #HTB-102) breast adenocarcinoma cells were obtained from ATCC. The cells were grown in high glucose DMEM supplemented with 10% fetal bovine serum, 1% penicillin and streptomycin, and 2 mM L-glutamine. Cells were sub-cultured by dilution at a ratio of 1:4. MDA-MB-468 cells were harvested by trypsinization and counted using a hemocytometer. Cells were resuspended in PBS at a 4×10^8 cells per mL. Cells were placed on ice and mixed with an equal volume of Matrigel (BD Biosciences CB-40234). Thirty-two (32) CB-17 SCID mice were inoculated sub-cutaneously in the left flank with 4×10^7 MDA-MB-468 cells. Treatment was initiated when the tumors reached a mean volume of about 100 mm^3. Mice were allocated to four (4) groups of eight (8) mice such that mean tumor volume was about 100 mm^3 in each group. Mice were treated with vehicle, standard of care/positive control drug (paclitaxel), Compound 504 or Compound 510. Compound 504 (15 mg/kg) and Compound 510 (15 mg/kg) were given orally (PO) once daily on Monday through Friday each week. Animals' weights and condition were recorded daily, and tumors were measured on Mondays, Wednesdays, and Fridays.

Row | SMILES | cell cycle changes: Sub-G1 phase (U2OS cells [1]) | cell cycle changes: S phase and G2 phase (U2OS cells [1]; at 48-72 hours) | cell cycle proteins, p21 and cyclin D1 (U2OS cells [2]) | markers of stress response and autophagy (AMPK phosphorylation, short form of LC3 lysosome marker) (U2OS cells [2]) | mean tumor volume of Z-138 xenografts (Z-138 xenografts; SCID mice, 10, 30, or 60 mg/kg PO daily) | toxicity (side effects, weight loss) (Z-138 xenografts; Z-138 xenograft model, minimal or no side effects or weight loss up to daily dose) | pIC50 (HT-29 cells) | mean tumor volume of MDA-MB-468 xenografts (MDA-MB-468 xenografts) | toxicity (side effects, weight loss) (MDA-MB-468 xenografts)
1 | Nc1ccc(/C=C/C(=O)NCc2cc3cc(-c4ccc(C(=O)N5CCC(F)(F)CC5)cn4)cc(C(F)(F)F)c3o2)cn1 [Compound 585, (E)-3-(6-aminopyridin-3-yl)-N-((5-(5-(4,4-difluoropiperidine-1-carbonyl)pyridin-2-yl)-7-(trifluoromethyl)benzofuran-2-yl)methyl)acrylamide] | started to appear around 48-72 hours | loss of S phase and increase in G2 phase | reduced | induced markers of stress response and autophagy | tumor growth inhibition and even tumor regression | without major toxicity |  |  | 
2 | Nc1ccc(/C=C/C(=O)NCc2cc3cc(-c4ccc(S(=O)(=O)N5CCOCC5)cc4)cc(Cl)c3o2)cn1 [Compound 504, (E)-3-(6-Aminopyridin-3-yl)-N-((7-chloro-5-(4-(morpholinosulfonyl)phenyl)benzofuran-2-yl)methyl)acrylamide] |  |  |  |  |  |  | 6.32 | tumor growth inhibition | without major toxicity
3 | Nc1ccc(/C=C/C(=O)NCc2cc3cc(-c4ccc(C(=O)N5CCOCC5)cc4)cc(C(F)(F)F)c3o2)cn1 [Compound 510, (E)-3-(6-aminopyridin-3-yl)-N-((5-(4-(morpholine-4-carbonyl)phenyl)-7-(trifluoromethyl)benzofuran-2-yl)methyl)acrylamide] |  |  |  |  |  |  | 5.03 | tumor growth inhibition | without major toxicity
